Experimental data reported in publication PMC12102759 (Protein Science : A Publication of the Protein Society, 2025).

Each substance was assayed against G3BP1 NTF2 (Homo sapiens, UniProt Q13283) (assay: biochemical). Conditions: not given.
Type: binding

G3BP1 NTF2, sequence (Q13283 1-139): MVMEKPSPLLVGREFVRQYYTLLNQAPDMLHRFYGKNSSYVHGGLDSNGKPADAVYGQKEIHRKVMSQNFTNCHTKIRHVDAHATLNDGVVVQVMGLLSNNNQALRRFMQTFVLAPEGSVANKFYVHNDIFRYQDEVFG

Row | Substance | IC50 [µM] | effect of mutation on affinity, in words
1 | Ac-AERITFGGPSDSTGSY-NH2 [N P13E] | 22 | –
2 | Ac-APLITFGGPSDSTGSY-NH2 [N R14L] | 11 | –
3 | Ac-APRIEFGGPSDSTGSY-NH2 [N12–26 T16E] | – | sevenfold loss of affinity
4 | Ac-APRIEFGGPSDSTGSY-NH2 [N T15E] | 49 | –
5 | Ac-APRITFGAPSDSTGSY-NH2 [N G19A] | 5.2 | –
6 | Ac-APRITFGGFSDSTGSY-NH2 [N P20F] | 44 | –
7 | Ac-APRITFGGPYDSTGSY-NH2 [N S21Y] | 16 | –
8 | Ac-DPRITFGGPSDSTGSY-NH2 [N A12D] | 9.9 | –

Same assay, conditions: KD

Row | Substance | Kd [µM]
9 | Ac-AERITFGGPSDSTGSY-NH2 [N P13E] | 6.8
10 | Ac-APLITFGGPSDSTGSY-NH2 [N R14L] | 3
11 | Ac-APRIEFGGPSDSTGSY-NH2 [N12–26 T16E] | 16
12 | Ac-APRITFGAPSDSTGSY-NH2 [N G19A] | 1.1
13 | Ac-APRITFGGFSDSTGSY-NH2 [N P20F] | 14
14 | Ac-APRITFGGPSDSTGSY-NH2 [N12–26] | 2
15 | Ac-APRITFGGPSDSTGSY-NH2 [N wt] | 2.3
16 | Ac-APRITFGGPYDSTGSY-NH2 [N S21Y] | 4.7
17 | Ac-DPRITFGGPSDSTGSY-NH2 [N A12D] | 2.7

The substances below were run against NSP3 ADRP (Severe acute respiratory syndrome coronavirus 2, UniProt P0DTC1) (assay: biochemical). Conditions: not given.
Type: binding, SARS‐CoV‐2

Row | Substance | IC50 [µM] | Kd [µM]
18 | Ac-STALHPLSELLGIPLDY-NH2 [MBOAT1 Y19A] | 452 | 161

What follows are substances tested on G3BP1 NFT2 (assay: not given). Conditions: library DMS-BM; bait G3BP1 NFT2; prey CAPRIN1; AQMQGPYNFIQDSM(averaged): mean of the two overlapping peptides over the shared positions.
Type: binding, human

Row | Substance | DMS position-specific score (PSSM value) per amino-acid substitution, averaged
19 | AQMQGPYNFIQDSM(averaged) Q11T (AQMQGPYNFITDSM) | 0.1081
20 | AQMQGPYNFIQDSM(averaged) Q11V (AQMQGPYNFIVDSM) | 0.06659
21 | AQMQGPYNFIQDSM(averaged) Q11W (AQMQGPYNFIWDSM) | 0.01601
22 | AQMQGPYNFIQDSM(averaged) Q11Y (AQMQGPYNFIYDSM) | 0.0642
23 | AQMQGPYNFIQDSM(averaged) S13A (AQMQGPYNFIQDAM) | 0.1575
24 | AQMQGPYNFIQDSM(averaged) S13D (AQMQGPYNFIQDDM) | 0.02096
25 | AQMQGPYNFIQDSM(averaged) S13E (AQMQGPYNFIQDEM) | 0.01271
26 | AQMQGPYNFIQDSM(averaged) S13F (AQMQGPYNFIQDFM) | 0.05713
27 | AQMQGPYNFIQDSM(averaged) S13G (AQMQGPYNFIQDGM) | 0.0006715
28 | AQMQGPYNFIQDSM(averaged) S13H (AQMQGPYNFIQDHM) | 0
29 | AQMQGPYNFIQDSM(averaged) S13I (AQMQGPYNFIQDIM) | 0.01393
30 | AQMQGPYNFIQDSM(averaged) S13K (AQMQGPYNFIQDKM) | 0
31 | AQMQGPYNFIQDSM(averaged) S13L (AQMQGPYNFIQDLM) | 0.0002731
32 | AQMQGPYNFIQDSM(averaged) S13M (AQMQGPYNFIQDMM) | 0
33 | AQMQGPYNFIQDSM(averaged) S13N (AQMQGPYNFIQDNM) | 0.02537
34 | AQMQGPYNFIQDSM(averaged) S13P (AQMQGPYNFIQDPM) | 0
35 | AQMQGPYNFIQDSM(averaged) S13Q (AQMQGPYNFIQDQM) | 0
36 | AQMQGPYNFIQDSM(averaged) S13R (AQMQGPYNFIQDRM) | 0.001343
37 | AQMQGPYNFIQDSM(averaged) S13S | 0.5152
38 | AQMQGPYNFIQDSM(averaged) S13T (AQMQGPYNFIQDTM) | 0.05884
39 | AQMQGPYNFIQDSM(averaged) S13V (AQMQGPYNFIQDVM) | 0.1094

Row | Substance | DMS position-specific score (PSSM value) per amino-acid substitution, averaged
40 | AQMQGPYNFIQDSM(averaged) S13W (AQMQGPYNFIQDWM) | 0.01323
41 | AQMQGPYNFIQDSM(averaged) S13Y (AQMQGPYNFIQDYM) | 0.0135
42 | AQMQGPYNFIQDSM(averaged) Y7A (AQMQGPANFIQDSM) | 0
43 | AQMQGPYNFIQDSM(averaged) Y7D (AQMQGPDNFIQDSM) | 0
44 | AQMQGPYNFIQDSM(averaged) Y7E (AQMQGPENFIQDSM) | 0.0001172
45 | AQMQGPYNFIQDSM(averaged) Y7F (AQMQGPFNFIQDSM) | 0.03551
46 | AQMQGPYNFIQDSM(averaged) Y7G (AQMQGPGNFIQDSM) | 0.05778
47 | AQMQGPYNFIQDSM(averaged) Y7H (AQMQGPHNFIQDSM) | 0.0003057
48 | AQMQGPYNFIQDSM(averaged) Y7I (AQMQGPINFIQDSM) | 0.113
49 | AQMQGPYNFIQDSM(averaged) Y7K (AQMQGPKNFIQDSM) | 0
50 | AQMQGPYNFIQDSM(averaged) Y7L (AQMQGPLNFIQDSM) | 0.1143
51 | AQMQGPYNFIQDSM(averaged) Y7M (AQMQGPMNFIQDSM) | 0.001832
52 | AQMQGPYNFIQDSM(averaged) Y7N (AQMQGPNNFIQDSM) | 0
53 | AQMQGPYNFIQDSM(averaged) Y7P (AQMQGPPNFIQDSM) | 0.002813
54 | AQMQGPYNFIQDSM(averaged) Y7Q (AQMQGPQNFIQDSM) | 0.001996
55 | AQMQGPYNFIQDSM(averaged) Y7R (AQMQGPRNFIQDSM) | 0
56 | AQMQGPYNFIQDSM(averaged) Y7S (AQMQGPSNFIQDSM) | 0.06469
57 | AQMQGPYNFIQDSM(averaged) Y7T (AQMQGPTNFIQDSM) | 0
58 | AQMQGPYNFIQDSM(averaged) Y7V (AQMQGPVNFIQDSM) | 0.02381
59 | AQMQGPYNFIQDSM(averaged) Y7W (AQMQGPWNFIQDSM) | 0.03599
60 | AQMQGPYNFIQDSM(averaged) Y7Y | 0.5479

The substances below were run against NSP3 SUD-M (Severe acute respiratory syndrome coronavirus 2, UniProt P0DTC1) (assay: biochemical). Conditions: not given.
Type: binding, SARS‐CoV‐2

Row | Substance | IC50 [µM] | Kd [µM] | fold increase in affinity compared to wild‐type PRDM14 peptide [fold]
61 | Ac-QFTEEALHFVLYGVTPY-NH2 [PRDM14 D201A] | 1050 | 226 | –
62 | Ac-QFTEEDLHFVLEGVTPY-NH2 [PRDM14 Y207E] | 243 | 40 | –
63 | Ac-QFTEEDLHFVLYGVTPY-NH2 [PRDM14 wt] | 400 | 74 | –
64 | Ac-QFTEEDLMFVLYGVTPY-NH2 [PRDM14 H203M] | 124 | 13 | –
65 | Ac-QFTEEELHFVLYGVTPY-NH2 [PRDM14 D201E] | 90 | 5.4 | 14
66 | Ac-QFTEENLHFVLYGVTPY-NH2 [PRDM14 D201N] | 1430 | 313 | –

Each substance was assayed on USP7 MATH (assay: not given). Conditions: DMS-CoV library, bait USP7 MATH, prey N, parental peptide SKQLQQSMSSADSTQA, label suffix = wt residue, displayed residue (same letter = wild type), x = no value.
Type: binding, human

Row | Substance | DMS PSSM value (matrix of displayed amino acid x peptide position)
67 | SKQLQQSMSSADSTQA A11A | 1
68 | SKQLQQSMSSADSTQA D12D | 1
69 | SKQLQQSMSSADSTQA K2V (SVQLQQSMSSADSTQA) | 1
70 | SKQLQQSMSSADSTQA M8M | 1
71 | SKQLQQSMSSADSTQA Q3Q | 1
72 | SKQLQQSMSSADSTQA Q5Q | 1
73 | SKQLQQSMSSADSTQA Q6Q | 1
74 | SKQLQQSMSSADSTQA Q15Q | 1
75 | SKQLQQSMSSADSTQA S1S | 1
76 | SKQLQQSMSSADSTQA S7S | 1
77 | SKQLQQSMSSADSTQA S9S | 1
78 | SKQLQQSMSSADSTQA S10S | 1
79 | SKQLQQSMSSADSTQA S13S | 1
80 | SKQLQQSMSSADSTQA T14V (SKQLQQSMSSADSVQA) | 1

What follows are substances tested against NSP9 (Severe acute respiratory syndrome coronavirus 2, UniProt P0DTC1) (assay: biochemical). Conditions: not given.
Type: binding, SARS‐CoV‐2

Row | Substance | Kd [µM] | IC50 [µM]
81 | Ac-QGAWLDAPEPWEPLLD-NH2 [NOTCH4 G1611D] | 160 | –
82 | Ac-QGAWLGAPEPWEPLLD-NH2 [NOTCH4 wt] | 72 | 205
83 | Ac-QGAWLGAPEPWFPLLD-NH2 [NOTCH4 E1617F] | 35 | 109
84 | Ac-QGAWLGAPEPYEPLLD-NH2 [NOTCH4 W1616Y] | 57 | 167
85 | Ac-QGAWLGAPEYWEPLLD-NH2 [NOTCH4 P1615Y] | 51 | 152
86 | Ac-QGAWLGAPVPWEPLLD-NH2 [NOTCH4 E1614V] | – | 178
87 | Ac-QGAWLGAVEPWEPLLD-NH2 [NOTCH4 P1613V] | 33 | 105
88 | Ac-QGAWLGIPEPWEPLLD-NH2 [NOTCH4 A1612I] | 50 | 149
89 | Ac-QGAWLPAPEPWEPLLD-NH2 [NOTCH4 G1611P] | 410 | –
90 | Ac-QGSWLGAPEPWEPLLD-NH2 [NOTCH4 A1608S] | 216 | 583
91 | Ac-QGVWLGAPEPWEPLLD-NH2 [NOTCH4 A1608V] | 16 | 59
92 | Ac-QGVWLGAVEPWEPLLD-NH2 [NOTCH4 A1608V P1613V] | 5.9 | 33.4
